Target: T1, TLR7 (Homo sapiens, UniProt Q9NYK1)
T1 sequence (Q9NYK1 27-1049): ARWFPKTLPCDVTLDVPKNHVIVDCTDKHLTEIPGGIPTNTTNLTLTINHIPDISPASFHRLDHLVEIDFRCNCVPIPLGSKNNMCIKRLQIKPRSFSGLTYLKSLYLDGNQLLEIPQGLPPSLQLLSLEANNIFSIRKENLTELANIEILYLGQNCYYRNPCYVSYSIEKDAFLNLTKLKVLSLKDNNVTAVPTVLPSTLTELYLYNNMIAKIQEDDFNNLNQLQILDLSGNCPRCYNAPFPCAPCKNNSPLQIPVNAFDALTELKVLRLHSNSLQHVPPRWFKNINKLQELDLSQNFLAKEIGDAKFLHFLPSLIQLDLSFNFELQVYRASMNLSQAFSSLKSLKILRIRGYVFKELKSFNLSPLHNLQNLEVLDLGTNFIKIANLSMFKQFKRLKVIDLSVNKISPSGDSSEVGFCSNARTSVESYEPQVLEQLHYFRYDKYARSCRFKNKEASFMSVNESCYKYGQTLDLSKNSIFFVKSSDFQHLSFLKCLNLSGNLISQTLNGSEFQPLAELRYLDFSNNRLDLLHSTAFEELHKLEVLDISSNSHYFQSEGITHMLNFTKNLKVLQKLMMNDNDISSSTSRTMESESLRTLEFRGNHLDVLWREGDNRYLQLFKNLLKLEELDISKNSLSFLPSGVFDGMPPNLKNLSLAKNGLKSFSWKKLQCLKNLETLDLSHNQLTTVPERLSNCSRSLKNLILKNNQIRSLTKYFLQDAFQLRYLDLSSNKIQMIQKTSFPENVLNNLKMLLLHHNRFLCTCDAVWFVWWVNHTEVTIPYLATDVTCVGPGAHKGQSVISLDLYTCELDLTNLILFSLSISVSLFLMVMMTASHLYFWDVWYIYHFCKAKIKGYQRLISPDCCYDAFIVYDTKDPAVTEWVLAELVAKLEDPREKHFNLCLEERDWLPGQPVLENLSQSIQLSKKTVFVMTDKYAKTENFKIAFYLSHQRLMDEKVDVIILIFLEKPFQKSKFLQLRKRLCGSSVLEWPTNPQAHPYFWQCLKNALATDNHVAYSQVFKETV
Assay: Human TLR7 reporter gene agonistic activity assay
Assay type: cell-based
Design: host or cells: HEK293 (TLR7/NF-κB/SEAPorter)
Procedure: Compounds were dissolved in dimethyl sulfoxide. Before stimulation with compound, Human TLR7 reporter cell line (Novus Biological) was seeded in 96-well microtiter plate (AGC techno glass) at 5 × 10^4 cells/well in DMEM (GIBCO) with 10% fetal bovine serum (GIBCO), and 10 ug/ml Blastcidin S HCl (GIBCO) and incubated at 37 °C in 5% CO2. The plates were incubated over-night and then stimulated with various concentrations of compound and R848. The plates were then incubated an additional 20 ± 1 h at 37 °C in 5% CO2 and then the secreted embryonic alkaline phosphatase (SEAP) activity was measured as activation of human TLR7. The SEAP activity was evaluated as follows: pNPP (Invitrogen, USA) was added to the incubated sample (50 μl/well); after 15 min, 4 M sodium hydroxide solution (nacalai tesque, Japan) was added thereto (50 μl/well) to quench the reaction; and the absorbance of each sample was measured at 405 nm with microplate reader SpectraMax M4 (Molecular Devices, USA).

Row | SMILES | activation of human TLR7, reporter signal (compound 0.001 nM (as headed)) | activation of human TLR7, reporter signal (compound 0.003 nM (as headed)) | activation of human TLR7, reporter signal (compound 0.01 nM (as headed)) | activation of human TLR7, reporter signal (compound 0.03 nM (as headed)) | activation of human TLR7, reporter signal (compound 0.1 nM (as headed)) | activation of human TLR7, reporter signal (compound 0.3 nM (as headed)) | activation of human TLR7, reporter signal (compound 1 nM (as headed)) | activation of human TLR7, reporter signal (compound 3 nM (as headed)) | activation of human TLR7, reporter signal (compound 10 nM (as headed)) | activation of human TLR7, reporter signal (compound 30 nM (as headed)) | activation of human TLR7, reporter signal (compound 100 nM (as headed)) | activation of TLR7
1 | CCOc1nc(C)c2nc(-c3cncc(F)c3)n(Cc3ccc(CN4C[C@@H]5C[C@H]4CN5C)cc3)c2n1 [Cpd-7] | -0.0428 | -0.04595 | -0.1002 | -0.06165 | -0.0434 | -0.02775 | -0.0578 | -0.0693 | -0.1036 | -0.0961 | -0.09835 | 
2 | CCCCOc1nc(N)c2nc(-c3cccnc3)n(Cc3ccccc3)c2n1 [Cpd-5] | -0.0519 | -0.05305 | -0.08885 | -0.06455 | -0.0507 | -0.02125 | -0.05725 | -0.0655 | -0.0852 | -0.0846 | -0.0973 | without causing any inhibition of either TLR8 or TLR9 and activation of TLR7
3 | CCOc1nc(N)c2nc(-c3cncc(F)c3)n(Cc3ccc(CN4C[C@@H]5C[C@H]4CN5C)cc3)c2n1 [Cpd-6] | -0.07495 | -0.076 | -0.1139 | -0.0956 | -0.074 | -0.01435 | -0.0641 | -0.07475 | -0.1166 | -0.1098 | -0.12 | 

From PMC7562955 (Nature Communications, 2020)
